Reference: the NIST ThermoML archive (doi:10.1016/j.jct.2004.06.008)
Numbers after ± are expanded uncertainties.

Test: molar heat capacity at constant pressure
Details: 101.33 kPa, Crystal, Vacuum adiabatic calorimetry

[Cu] [copper]
Details	molar heat capacity at constant pressure [J/K/mol]
6.56 K	0.0232 ± 0.0002
7.16 K	0.0255 ± 0.0002
7.85 K	0.0323 ± 0.0002
8.64 K	0.04 ± 0.0002
9.55 K	0.0534 ± 0.0003
10.51 K	0.0663 ± 0.0004
11.42 K	0.0839 ± 0.0005
12.43 K	0.1121 ± 0.0005
13.56 K	0.137 ± 0.0007
14.81 K	0.1926 ± 0.0008
16.17 K	0.2314 ± 0.0009
17.69 K	0.304 ± 0.0013
19.34 K	0.4106 ± 0.0016
20.19 K	0.4727 ± 0.0019
21.13 K	0.5555 ± 0.0021
21.94 K	0.6242 ± 0.0022
23.08 K	0.7448 ± 0.0026
23.76 K	0.8181 ± 0.0028
25.79 K	1.058 ± 0.0034
28.01 K	1.37 ± 0.0041
30.46 K	1.761 ± 0.0049
33.17 K	2.259 ± 0.006
36.05 K	2.853 ± 0.0071
37.57 K	3.173 ± 0.0077
39.01 K	3.497 ± 0.0084
40.74 K	3.898 ± 0.0091
44.1 K	4.708 ± 0.011
45.89 K	5.146 ± 0.011
47.52 K	5.549 ± 0.012
49.38 K	6.025 ± 0.013
52.99 K	6.933 ± 0.015
54.47 K	7.281 ± 0.015
56.65 K	7.837 ± 0.016
56.87 K	7.882 ± 0.017
59.76 K	8.582 ± 0.018
62.64 K	9.272 ± 0.019
66.47 K	10.14 ± 0.021
71.22 K	11.16 ± 0.023
75.97 K	12.13 ± 0.025
80.79 K	13.04 ± 0.026
85.65 K	13.89 ± 0.028
90.55 K	14.68 ± 0.03
95.49 K	15.41 ± 0.031
100.46 K	16.08 ± 0.032
105.45 K	16.71 ± 0.034
110.46 K	17.28 ± 0.035
115.49 K	17.81 ± 0.036
120.54 K	18.3 ± 0.037
125.61 K	18.75 ± 0.038
130.68 K	19.16 ± 0.038
134.74 K	19.47 ± 0.039
135.77 K	19.54 ± 0.039
139.84 K	19.82 ± 0.04
140.87 K	19.89 ± 0.04
144.94 K	20.16 ± 0.04
150.05 K	20.46 ± 0.041
155.17 K	20.75 ± 0.042
160.3 K	21.02 ± 0.042
165.43 K	21.27 ± 0.043
170.57 K	21.5 ± 0.043
175.7 K	21.72 ± 0.043
180.85 K	21.92 ± 0.044
186 K	22.11 ± 0.044
191.15 K	22.28 ± 0.045
193.33 K	22.35 ± 0.045
196.3 K	22.45 ± 0.045
198.48 K	22.51 ± 0.045
201.46 K	22.6 ± 0.045
203.64 K	22.66 ± 0.045
206.62 K	22.74 ± 0.045
208.8 K	22.79 ± 0.046
213.96 K	22.93 ± 0.046
219.13 K	23.06 ± 0.046
224.29 K	23.19 ± 0.046
229.45 K	23.31 ± 0.047
232.56 K	23.38 ± 0.047
234.62 K	23.41 ± 0.047
237.73 K	23.49 ± 0.047
239.79 K	23.53 ± 0.047
242.89 K	23.59 ± 0.047
248.06 K	23.68 ± 0.047
253.24 K	23.77 ± 0.048
258.41 K	23.86 ± 0.048
263.59 K	23.95 ± 0.048
268.77 K	24.02 ± 0.048
273.95 K	24.09 ± 0.048
279.13 K	24.16 ± 0.048
284.31 K	24.23 ± 0.048
289.49 K	24.31 ± 0.049
294.67 K	24.38 ± 0.049
297.38 K	24.41 ± 0.049
299.85 K	24.44 ± 0.049
302.55 K	24.49 ± 0.049
307.73 K	24.55 ± 0.049
312.92 K	24.61 ± 0.049
318.1 K	24.67 ± 0.049
323.28 K	24.73 ± 0.049
325.89 K	24.75 ± 0.05
328.47 K	24.78 ± 0.05
331.06 K	24.8 ± 0.05
336.25 K	24.85 ± 0.05
341.44 K	24.91 ± 0.05
346.62 K	24.95 ± 0.05
351.8 K	24.99 ± 0.05
356.99 K	25.03 ± 0.05
363.06 K	25.07 ± 0.05
368.04 K	25.11 ± 0.05
373.02 K	25.17 ± 0.05
378 K	25.25 ± 0.051
382.98 K	25.25 ± 0.05
387.96 K	25.3 ± 0.051
392.94 K	25.35 ± 0.051
397.62 K	25.41 ± 0.051
